# Test results from paper PMC4823711, “Allosteric Partial Inhibition of Monomeric Proteases. Sulfated Coumarins Induce Regulation, not just Inhibition, of Thrombin” (Scientific Reports, 2016).
# Where “and” joins values, the source holds several entries; their conditions need not be identical. Equal entries are not always repeated.
# Assays:
# thrombin = thrombin (Homo sapiens, UniProt P00734); test: Michaelis-Menten kinetics of Spectrozyme TH hydrolysis by thrombin; format: biochemical; set-up: 6 nM plasma α-thrombin; purchased Haematologic Technologies (Essex Junction, VT); conditions: for VMAX: pH 7.4, 25 °C
# Protocol: Four concentrations (0, 25, 187, and 2500 nM) of 3g were studied in triplicate where 3g was incubated with thrombin for 10 min in buffer (20 mM Tris-HCl, 100 mM NaCl, 2.5 mM CaCl2, 0.1% PEG 8000, pH 7.4) at 25 °C. Spectrozyme TH at various concentrations (0–250 μM) was added at each of the four 3g concentrations and the initial rate of hydrolysis was recorded from the increase in A405 as a function of time. This slope was fitted to the standard Michaelis-Menten equation to derive VMAX and KM of the reaction at each of the 3g concentrations.
# thrombin mutant K236A = target: T1, thrombin mutant K236A (Homo sapiens, UniProt P00734, K611A); test: Inhibition of thrombin mutant K236A; format: biochemical; conditions: pH 7.4, 25 °C
# T1 construct: a group of thrombin mutants containing replacement of either Arg or Lys present in exosite 2 to Ala
# Protocol: (§1) Chromogenic substrate hydrolysis assay was used to measure potency of inhibition, as previously reported. The assay was performed using Flexstation III (Molecular Devices, Sunnyvale, CA) by monitoring substrate hydrolysis at 405 nm. For thrombin and its mutants, 180 μL of buffer (20 mM Tris-HCl, 100 mM NaCl, 2.5 mM CaCl2, 0.1% (polyethylene glycol) PEG 8000, pH 7.4) was added to each well followed by 5 μL of 240 nM thrombin and 10 μL of sulfated coumarin in DMSO to give 0.002 to 250 μM final concentration (or 10 μL of DMSO alone). After incubation for 10 min at 25 °C, 5 μL of 2 mM Spectrozyme TH was added to each well simultaneously and allowed to react for 60 seconds at 25 °C while simultaneously monitoring the reaction to obtain the rate of increase in A405. Identical experimental conditions were used for reactions in the presence of antithrombin, except for 100 nM of antithrombin added prior to the addition of the substrate.
# [1] = target: T2, fluorescein-labeled (f FPRCK-) thrombin (Homo sapiens, UniProt P00734); test: Thermodynamic affinity by fluorescence titration; format: binding
# T2 construct: fluorescein-labeled (f FPRCK-) human thrombin; purchased Haematologic Technologies (Essex Junction, VT); host or cells: human plasma
# Protocol: Affinity studies were performed in triplicate and conducted using quartz cuvettes. 180 μL of buffer (20 mM Tris-HCl, 100 mM NaCl, 2.5 mM CaCl2, 0.1% PEG 8000, pH 7.4) and 20 μL of 2 μM fluorescein-labeled (f FPRCK-) thrombin were added to the cuvette followed by titration with 1 μL additions of 3g. Fluorescence intensities were monitored by excitation at 490 nm and emission at 525 nm using slit widths of 0.5 mm. The KD of 3g–thrombin complex was calculated using the quadratic binding equation (equation 4) in which ∆F is the change in fluorescence from the formation of the thrombin-ligand complex with each addition of 3g. F0 is the initial fluorescence and ∆FMAX represents the maximum observed change in fluorescence due to thrombin saturation ([Th]0).
# factor Xa = target: T3, factor Xa (Homo sapiens, UniProt P00742); test: Antithrombin inactivation of factor Xa in the presence of sulfated coumarin; format: biochemical; conditions: 0 or 220 nM 3g, pH 7.2, 25 °C
# T3 construct: antithrombin, factor Xa and factor XIa were from Haematologic Technologies; purchased Haematologic Technologies (Essex Junction, VT); host or cells: human plasma
# Protocol: The effect of 3g on the reaction of thrombin (or factor Xa) with antithrombin was studied under pseudo-first order conditions such that [AT]0 ≫ [T]0. A fixed concentration of 6 nM plasma α-thrombin in 20 mM Tris-HCl buffer, pH 7.2, containing 100 mM NaCl, 2.5 mM CaCl2 and 0.1% PEG 8000 at 25 °C was incubated for 128 min with final concentrations of 0, 75, 225, or 675 nM of 3g following which a fixed concentration of 100 nM of antithrombin was added and the reaction allowed to proceed. […] The initial rate of hydrolysis of the Spectrozymes were monitored from the linear increase in A405. The fractional residual enzyme activity at each time point was calculated from the slope, i.e., thrombin activity, measured at the start of the experiment and fitted by the standard exponential decay equation 6 to calculate the observed pseudo-first order rate constant, kOBS, at each concentration of 3g. The intrinsic second-order rate constant of antithrombin inhibition of thrombin (kINT) was calculated using equation 7 and plotted against the concentration of thrombin–3g complex, obtained from quadratic equation 8, to derive the kINT of antithrombin inhibition of thrombin–3g complex.
# factor XIa = target: T4, factor XIa (Homo sapiens, UniProt P03951); test: Chromogenic substrate hydrolysis assay, factor XIa inhibition (S-2366); format: biochemical
# T4 construct: antithrombin, factor Xa and factor XIa were from Haematologic Technologies; purchased Haematologic Technologies (Essex Junction, VT); host or cells: human plasma
# Protocol: For factor XIa inhibition studies, 85 μL of buffer (50 mM Tris-HCl, 150 mM NaCl, 0.1% PEG 8000, 0.02% Tween 80, pH 7.4) was added to each well, followed by 7 μL of 15.3 nM enzyme and 3 μL of sulfated coumarin (3.75–500 μM final concentration) and incubated for 10 min at 37 °C. After the incubation period, 5 μL of 6.9 mM S-2366 was added to each well simultaneously and allowed to react for 300 sec at 37 °C. For factor Xa assay, 180 μL of buffer (20 mM Tris-HCl, 100 mM NaCl, 2.5 mM CaCl2, 0.1% PEG 8000, 0.02% Tween 80, pH 7.4) was added to each well followed by 5 μL of 43.5 nM enzyme, 10 μL of sulfated coumarin (0.002–250 μM final concentration). After a 10 min incubation, 5 μL of 5 mM Spectrozyme FXa was added to each well simultaneously and allowed to react for 300 seconds at 37 °C. The slopes generated from each experiment were used to calculate the fractional residual activity (Y) at each concentration of the inhibitor, and analyzed using logistic equation 1, in which YM is the maximum efficacy, Y0 is minimum efficacy and HS is the Hill slope.
# [2] = test system: recombinant human thrombins; test: Inhibition of recombinant thrombins (wild type and exosite 2 mutants, summary statements); format: biochemical
# Protocol: as §1
# T4 sequence (P03951 388-625 limits assumed): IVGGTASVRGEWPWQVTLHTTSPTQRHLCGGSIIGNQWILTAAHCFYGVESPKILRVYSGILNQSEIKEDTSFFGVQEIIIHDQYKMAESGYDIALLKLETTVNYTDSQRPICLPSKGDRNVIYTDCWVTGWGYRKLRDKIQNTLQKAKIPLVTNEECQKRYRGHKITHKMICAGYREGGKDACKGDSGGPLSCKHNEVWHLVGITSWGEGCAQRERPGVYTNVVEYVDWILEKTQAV
# T4 sequence (P03951 19-387 limits assumed): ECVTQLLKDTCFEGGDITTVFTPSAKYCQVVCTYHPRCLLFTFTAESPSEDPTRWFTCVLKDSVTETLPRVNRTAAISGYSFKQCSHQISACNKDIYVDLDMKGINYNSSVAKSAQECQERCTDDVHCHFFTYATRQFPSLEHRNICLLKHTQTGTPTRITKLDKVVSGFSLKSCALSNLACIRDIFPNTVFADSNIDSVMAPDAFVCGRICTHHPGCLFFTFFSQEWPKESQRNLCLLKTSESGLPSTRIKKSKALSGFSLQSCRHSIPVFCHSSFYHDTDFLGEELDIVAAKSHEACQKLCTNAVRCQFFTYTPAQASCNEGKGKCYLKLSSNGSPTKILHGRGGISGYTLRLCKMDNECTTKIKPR
# T3 sequence (P00742 235-488 limits assumed): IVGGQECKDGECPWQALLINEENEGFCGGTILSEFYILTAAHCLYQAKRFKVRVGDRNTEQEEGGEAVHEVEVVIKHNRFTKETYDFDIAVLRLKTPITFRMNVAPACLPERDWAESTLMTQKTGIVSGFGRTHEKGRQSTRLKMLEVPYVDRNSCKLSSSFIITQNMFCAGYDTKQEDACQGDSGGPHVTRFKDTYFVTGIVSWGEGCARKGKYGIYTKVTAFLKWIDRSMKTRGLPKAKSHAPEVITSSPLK
# T3 sequence (P00742 41-179 limits assumed): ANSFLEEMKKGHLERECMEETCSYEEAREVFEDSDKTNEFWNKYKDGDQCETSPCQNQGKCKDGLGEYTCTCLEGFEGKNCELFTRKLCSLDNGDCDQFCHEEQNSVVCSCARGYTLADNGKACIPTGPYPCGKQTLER
compound,measurement,setting,value
O=c1oc2cc(OCCCCn3cc(COc4ccc(-c5c(-c6ccccc6)c6cc(Cl)cc(Cl)c6oc5=O)cc4)nn3)ccc2c(-c2ccccc2)c1-c1ccc(OS(=O)(=O)O)cc1 [3g],VMAX,thrombin; [3g] 25 nM,52.4 ± 1.5 mAU/min
same,VMAX,thrombin; [3g] 187 nM,45.3 ± 1.1 mAU/min
same,VMAX,thrombin; [3g] 2500 nM,31.0 ± 0.9 mAU/min and 31.0 mAU/min
same,reduction of VMAX,thrombin; at saturating levels of 3g,≤ 50%
same,HS,thrombin mutant K236A,2.6
same,IC50,thrombin mutant K236A,0.525 ± 0.07 µM
same,ΔY,thrombin mutant K236A,64 ± 4%
same,ΔFMAX,[1]; loss in fluorescence at saturation,~ 28%
same,Kd,"[1]; pH 7.4, λEX 490 nm, λEM 525 nm, quadratic binding equation",0.143 ± 0.014 µM
same,change in the second-order rate constant of antithrombin inhibition of factor Xa,factor Xa,did not induce any change
same,selectivity for thrombin in comparison to factor XIa,factor XIa,~ 150 fold
same,IC50,"factor XIa; pH 7.4, 37 °C, read-out: IC50 against factor XIa",> 30 µM
same,increase of IC50 in comparison to recombinant wild-type thrombin,"[2]; mutants K236A, K235A, R173A and K169A",< 1.4 fold
same,maximal inhibition efficacies,[2]; range over all recombinant thrombins studied,28 to 64%
